Tests used:
Format in all cases: functional
[1] = test system: Citrobacter youngae; assay: Antibacterial activity against Citrobacter youngae isolate CyB38 harboring blaIMP-4-qacG2-aacA4-catB3 array by Etest method
[2] = test system: Klebsiella pneumoniae; assay: Antibacterial activity against Klebsiella pneumoniae Kp2730 transconjugant harboring IncL/M plasmid and blaIMP-4-qacG2-aacA4-catB3 and dfrA12-orfF-aadA2 arrays by Etest method
[3] = test system: Citrobacter amalonaticus; assay: Antibacterial activity against Citrobacter amalonaticus Ca3927 transconjugant harboring IncL/M plasmid and blaIMP-4-qacG2-aacA4-catB3 array by Etest method
[4] = test system: Enterobacter cloacae; assay: Antibacterial activity against Enterobacter cloacae El1573 transconjugant harboring IncL/M plasmid and blaIMP-4-qacG2-aacA4-catB3 array by Etest method
[5] = test system: Serratia marcescens; assay: Antibacterial activity against Serratia marcescens Sm2723 transconjugant harboring IncL/M plasmid and blaIMP-4-qacG2-aacA4-catB3 array by Etest method
[6] = test system: Klebsiella pneumoniae; assay: Antibacterial activity against Klebsiella pneumoniae Kp7564 transconjugant harboring IncL/M plasmid and blaIMP-4-qacG2-aacA4-catB3 array by Etest method
[7] = test system: Citrobacter amalonaticus; assay: Antibacterial activity against Citrobacter amalonaticus Ca38009 transconjugant harboring IncL/M plasmid and blaIMP-4-qacG2-aacA4-catB3 array by Etest method
[8] = test system: Klebsiella pneumoniae; assay: Antibacterial activity against Klebsiella pneumoniae Kp38009 transconjugant harboring IncL/M plasmid and blaIMP-4-qacG2-aacA4-catB3 array by Etest method
[9] = test system: Morganella morganii; assay: Antibacterial activity against Morganella morganii Mm38009 transconjugant harboring IncL/M plasmid and blaIMP-4-qacG2-aacA4-catB3 array by Etest method
[10] = test system: Escherichia coli; assay: Antibacterial activity against Escherichia coli Ec9381 transconjugant harboring IncL/M plasmid and blaIMP-4-qacG2-aacA4-catB3 array by Etest method
[11] = test system: Enterobacter cloacae; assay: Antibacterial activity against Enterobacter cloacae El3799 transconjugant harboring IncL/M plasmid and blaIMP-4-qacG2-aacA4-catB3 array by Etest method
[12] = test system: Klebsiella pneumoniae; assay: Antibacterial activity against Klebsiella pneumoniae Kp3799 transconjugant harboring IncL/M plasmid and blaIMP-4-qacG2-aacA4-catB3 array by Etest method
[13] = test system: Klebsiella oxytoca; assay: Antibacterial activity against Klebsiella oxytoca Ko1156 transconjugant harboring IncL/M plasmid and blaIMP-4-qacG2-aacA4-catB3 array by Etest method
[14] = test system: Klebsiella pneumoniae; assay: Antibacterial activity against Klebsiella pneumoniae Kp149 transconjugant harboring IncA/C plasmid and blaIMP-4-qacG2-aacA4-catB3 array by Etest method
[15] = test system: Citrobacter koseri; assay: Antibacterial activity against Citrobacter koseri Ck211 transconjugant harboring IncA/C plasmid and blaIMP-4-qacG2-aacA4-catB3 array by Etest method
[16] = test system: Klebsiella oxytoca; assay: Antibacterial activity against Klebsiella oxytoca Ko238 transconjugant harboring IncA/C plasmid and blaIMP-4-qacG2-aacA4-catB3 array by Etest method
[17] = test system: Serratia marcescens; assay: Antibacterial activity against Serratia marcescens Sm265 transconjugant harboring IncA/C plasmid and blaIMP-4-qacG2-aacA4-catB3 array by Etest method
[18] = test system: Klebsiella pneumoniae; assay: Antibacterial activity against Klebsiella pneumoniae isolate Kp1239 harboring IncL/M plasmid and blaIMP-4-qacG2-aacA4-catB3 array by Etest method
[19] = test system: Klebsiella pneumoniae; assay: Antibacterial activity against Klebsiella pneumoniae isolate Kp1945 harboring IncL/M plasmid and blaIMP-4-qacG2-aacA4-catB3 and dfrA12-orfF-aadA2 arrays by Etest method
[20] = test system: Enterobacter cloacae; assay: Antibacterial activity against Enterobacter cloacae isolate El3280 harboring IncL/M plasmid and blaIMP-4-qacG2-aacA4-catB3 array by Etest method
[21] = test system: Enterobacter cloacae; assay: Antibacterial activity against Enterobacter cloacae isolate El3518 harboring IncL/M plasmid and blaIMP-4-qacG2-aacA4-catB3 array by Etest method
[22] = test system: Citrobacter amalonaticus; assay: Antibacterial activity against Citrobacter amalonaticus isolate Ca3927 harboring IncL/M plasmid and blaIMP-4-qacG2-aacA4-catB3 array by Etest method
[23] = test system: Serratia marcescens; assay: Antibacterial activity against Serratia marcescens isolate Sm2723 harboring IncL/M plasmid and blaIMP-4-qacG2-aacA4-catB3 array by Etest method
[24] = test system: Klebsiella pneumoniae; assay: Antibacterial activity against Klebsiella pneumoniae isolate Kp7564 harboring IncL/M plasmid and blaIMP-4-qacG2-aacA4-catB3 array by Etest method
[25] = test system: Klebsiella pneumoniae; assay: Antibacterial activity against Klebsiella pneumoniae isolate Kp38009 harboring IncL/M plasmid and blaIMP-4-qacG2-aacA4-catB3 array by Etest method
[26] = test system: Morganella morganii; assay: Antibacterial activity against Morganella morganii isolate Mm38009 harboring IncL/M plasmid and blaIMP-4-qacG2-aacA4-catB3 array by Etest method
[27] = test system: Enterobacter cloacae; assay: Antibacterial activity against Enterobacter cloacae isolate El3799 harboring IncL/M plasmid and blaIMP-4-qacG2-aacA4-catB3 array by Etest method
[28] = test system: Klebsiella oxytoca; assay: Antibacterial activity against Klebsiella oxytoca isolate Ko0426 harboring IncL/M plasmid and blaIMP-4-qacG2-aacA4-catB3 array by Etest method
[29] = test system: Klebsiella oxytoca; assay: Antibacterial activity against Klebsiella oxytoca isolate Ko1156 harboring IncL/M plasmid and blaIMP-4-qacG2-aacA4-catB3 array by Etest method
[30] = test system: Citrobacter freundii; assay: Antibacterial activity against Citrobacter freundii isolate Cf1614 harboring IncL/M plasmid and blaIMP-4-qacG2-aacA4-catB3 array by Etest method
[31] = test system: Morganella morganii; assay: Antibacterial activity against Morganella morganii isolate Mm1614 harboring IncL/M plasmid and blaIMP-4-qacG2-aacA4-catB3 array by Etest method
[32] = test system: Klebsiella pneumoniae; assay: Antibacterial activity against Klebsiella pneumoniae isolate Kp4614
[33] = test system: Klebsiella pneumoniae; assay: Antibacterial activity against Klebsiella pneumoniae isolate Kp149 harboring IncA/C plasmid and blaIMP-4-qacG2-aacA4-catB3 array by Etest method
[34] = test system: Serratia marcescens; assay: Antibacterial activity against Serratia marcescens isolate Sm201 harboring IncA/C plasmid and blaIMP-4-qacG2-aacA4-catB3 array by Etest method
[35] = test system: Serratia marcescens; assay: Antibacterial activity against Serratia marcescens isolate Sm203 harboring IncA/C plasmid and blaIMP-4-qacG2-aacA4-catB3 array by Etest method
[36] = test system: Klebsiella pneumoniae; assay: Antibacterial activity against Klebsiella pneumoniae isolate Kp211 harboring IncA/C plasmid and blaIMP-4-qacG2-aacA4-catB3 array by Etest method
[37] = test system: Klebsiella pneumoniae; assay: Antibacterial activity against Klebsiella pneumoniae isolate Kp266 harboring IncA/C plasmid and blaIMP-4-qacG2-aacA4-catB3 array by Etest method
[38] = test system: Serratia marcescens; assay: Antibacterial activity against Serratia marcescens isolate Sm211 harboring IncA/C plasmid and blaIMP-4-qacG2-aacA4-catB3 array by Etest method
[39] = test system: Escherichia coli; assay: Antibacterial activity against Escherichia coli isolate Ec221 harboring IncA/C plasmid and blaIMP-4-qacG2-aacA4-catB3 array by Etest method
[40] = test system: Klebsiella oxytoca; assay: Antibacterial activity against Klebsiella oxytoca isolate Ko238 harboring IncA/C plasmid and blaIMP-4-qacG2-aacA4-catB3 array by Etest method
[41] = test system: Klebsiella pneumoniae; assay: Antibacterial activity against Klebsiella pneumoniae isolate Kp204 harboring IncA/C plasmid and blaIMP-4-qacG2-aacA4-catB3 array by Etest method
[42] = test system: Acinetobacter; assay: Antibacterial activity against Acinetobacter isolate A74510 harboring blaIMP-4-qacG2-aacA4-catB3 array by Etest method

GENTAMICIN was tested, and the MIC [1] was greater than 8 µg/mL, the MIC [2] was greater than 8 µg/mL and the MIC [3] was greater than 8 µg/mL. For the same sequence, the MIC [4] was greater than 8 µg/mL, the MIC [5] was greater than 8 µg/mL and the MIC [6] was greater than 8 µg/mL. The MIC [7] was greater than 8 µg/mL, the MIC [8] was greater than 8 µg/mL and the MIC [9] was greater than 8 µg/mL. It also gave an MIC [10] greater than 8 µg/mL, an MIC [11] greater than 8 µg/mL and an MIC [12] greater than 8 µg/mL. It also gave an MIC [13] greater than 8 µg/mL, an MIC [14] greater than 8 µg/mL and an MIC [15] greater than 8 µg/mL. It also gave an MIC [16] of less than 2 µg/mL, an MIC [17] of less than 2 µg/mL and an MIC [18] greater than 8 µg/mL. For the same sequence, the MIC [19] was greater than 8 µg/mL, the MIC [20] was greater than 8 µg/mL and the MIC [21] was greater than 8 µg/mL. It also gave an MIC [22] greater than 8 µg/mL, an MIC [23] greater than 8 µg/mL and an MIC [24] greater than 8 µg/mL. The MIC [25] was greater than 8 µg/mL, the MIC [26] was greater than 8 µg/mL and the MIC [27] was greater than 8 µg/mL. The MIC [28] was greater than 8 µg/mL, the MIC [29] was greater than 8 µg/mL and the MIC [30] was greater than 8 µg/mL. The MIC [31] was greater than 8 µg/mL, the MIC [32] was greater than 8 µg/mL and the MIC [33] was greater than 8 µg/mL. The MIC [34] was greater than 8 µg/mL, the MIC [35] was greater than 8 µg/mL and the MIC [36] was greater than 8 µg/mL. For the same sequence, the MIC [37] was greater than 8 µg/mL, the MIC [38] was greater than 8 µg/mL and the MIC [39] was less than 2 µg/mL. It also gave an MIC [40] of 4 µg/mL, an MIC [41] of less than 2 µg/mL and an MIC [42] greater than 8 µg/mL.

Reference: ChEMBL document CHEMBL1671859, “bla(IMP-4) in different genetic contexts in Enterobacteriaceae isolates from Australia” (2008)
